Activity calls are given as the source filed them. The calls are words filed in the database; no cut-off is given here.
Columns and labels:
Cytochrome P450 2C8 = molecular target: T1, Cytochrome P450 2C8 (Homo sapiens, UniProt P10632); assay: Inhibition of CYP2C8 in human hepatocytes; format: ADME, cell-based, Hepatocyte
T1 sequence (P10632 whole entry): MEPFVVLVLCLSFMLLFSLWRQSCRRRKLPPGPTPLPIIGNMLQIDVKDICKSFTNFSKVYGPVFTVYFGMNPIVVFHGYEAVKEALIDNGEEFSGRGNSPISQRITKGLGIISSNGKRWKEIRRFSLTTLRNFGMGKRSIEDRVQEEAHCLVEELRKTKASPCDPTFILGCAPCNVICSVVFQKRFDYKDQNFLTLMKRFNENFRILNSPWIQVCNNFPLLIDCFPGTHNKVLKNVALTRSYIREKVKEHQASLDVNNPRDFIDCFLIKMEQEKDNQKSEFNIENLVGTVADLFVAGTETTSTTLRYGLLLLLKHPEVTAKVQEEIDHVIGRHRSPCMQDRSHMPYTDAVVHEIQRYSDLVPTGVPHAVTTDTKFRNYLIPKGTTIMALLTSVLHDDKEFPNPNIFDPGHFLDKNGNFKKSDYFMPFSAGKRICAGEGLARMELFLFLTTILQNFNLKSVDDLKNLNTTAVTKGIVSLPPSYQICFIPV

[1] = Oral bioavailability in Beagle dog at 0.25 mg/kg; format: ADME, organism-based, Canis lupus familiaris; conditions: in vivo
[2] = MRT in Sprague-Dawley rat brain at 10 mg/kg, po; format: ADME, organism-based
Mus musculus = assay: Improvement in learning and spatial memory in APP/PS1 double mutant-transgenic mouse model assessed as increase in time spent in target quadrant at 0.5 to 1 mg/kg, IG QD by Morris water maze test; format: functional, organism-based; conditions: dose 0.5-1 mg/kg
[3] = AUC (0 to t) in Sprague-Dawley rat plasma at 10 mg/kg, po; format: ADME, organism-based; design: dose 10 mg/kg
[4] = Terminal half life in human plasma at 4 mg, po; format: ADME, cell-free; conditions: read-out: beta t1/2 (converted)
[5] = Cardiotoxicity in Beagle dog assessed as effect on QT interval at 0.1 to 1 mg/kg; format: toxicity, organism-based, Canis lupus familiaris; conditions: in vivo, dose 0.1-1 mg/kg
[6] = Volume of distribution at steady state in Beagle dog at 0.5 mg/kg, po or iv; format: ADME, organism-based, Canis lupus familiaris; conditions: in vivo, read-out: Vdss
[7] = Terminal half life in human plasma at 2 mg, po; format: ADME, cell-free; conditions: read-out: beta t1/2 (converted)
[8] = MRT (0 to infinity) in Sprague-Dawley rat at 0.5 mg/kg, iv; format: ADME, organism-based; conditions: in vivo
[9] = Ratio of drug concentration in brain to plasma of Sprague-Dawley rat at 10 mg/kg, po; format: ADME, organism-based; conditions: read-out: BPR
[10] = Tmax in Beagle dog at 0.25 mg/kg, po; format: ADME, organism-based, Canis lupus familiaris; conditions: in vivo
[11] = Cmax in human plasma at 2 mg, po; format: ADME, cell-free; design: route oral, dose 2 mg
[12] = Toxicity in Beagle dog assessed as effect on respiration at 0.1 to 1 mg/kg; format: organism-based, Canis lupus familiaris; conditions: in vivo, dose 0.1-1 mg/kg
[13] = Clearance in Beagle dog at 0.25 mg/kg, iv; format: ADME, organism-based, Canis lupus familiaris; conditions: in vivo
[14] = Cmax in human plasma at 1 mg, po; format: ADME, cell-free; design: route oral, dose 1 mg
[15] = Tmax in Sprague-Dawley rat at 0.5 mg/kg, po; format: ADME, organism-based; conditions: in vivo
[16] = Toxicity in Sprague-Dawley rat assessed as animal death at upto 30 mg/kg, po for 4 weeks; format: organism-based; conditions: in vivo, 672 h
[17] = Tmax in Sprague-Dawley rat brain at 10 mg/kg, po; format: ADME, organism-based
[18] = Efflux ratio of apparent permeability across basolateral to apical side over apical to basolateral side in human Caco-2 cells; format: ADME, cell-based
[19] = molecular target: T2, Acetylcholinesterase (Mus musculus) (UniProt P21836); assay: Ex vivo inhibition of AChE in ICR mouse cortex homogenate at 2 mg/kg, ig using acetylthiocholine iodide as substrate measured after 30 to 240 mins by DTNB reagent based assay; format: functional, organism-based; conditions: time 30-240 min
T2 sequence (whole entry): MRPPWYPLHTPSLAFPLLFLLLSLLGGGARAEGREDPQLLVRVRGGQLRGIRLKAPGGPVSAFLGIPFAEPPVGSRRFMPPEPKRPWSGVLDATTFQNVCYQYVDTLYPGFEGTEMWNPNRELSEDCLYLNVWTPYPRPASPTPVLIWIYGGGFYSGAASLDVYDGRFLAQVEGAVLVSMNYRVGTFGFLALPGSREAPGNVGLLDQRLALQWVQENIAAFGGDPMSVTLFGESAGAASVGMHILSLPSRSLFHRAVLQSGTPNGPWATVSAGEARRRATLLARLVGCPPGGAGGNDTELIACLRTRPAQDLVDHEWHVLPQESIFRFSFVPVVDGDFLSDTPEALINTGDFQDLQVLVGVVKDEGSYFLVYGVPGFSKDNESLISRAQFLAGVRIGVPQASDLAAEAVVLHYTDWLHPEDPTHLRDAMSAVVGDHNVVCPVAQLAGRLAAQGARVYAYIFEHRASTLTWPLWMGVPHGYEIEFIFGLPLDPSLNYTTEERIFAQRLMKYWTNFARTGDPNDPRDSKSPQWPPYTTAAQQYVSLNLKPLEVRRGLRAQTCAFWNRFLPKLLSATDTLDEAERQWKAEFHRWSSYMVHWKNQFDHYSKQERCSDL

[20] = Genotoxicity in ICR mouse at 7.5 to 30 mg/kg, po administered once a day for 2 consecutive days by micronucleus test; format: toxicity, organism-based; conditions: in vivo, 48 h, dose 7.5-30 mg/kg, time 2 day
[21] = molecular target: T2, Acetylcholinesterase (Mus musculus); assay: Ex vivo inhibition of AChE in ICR mouse hippocampal homogenate at 2 mg/kg, ig using acetylthiocholine iodide as substrate measured after 30 to 240 mins by DTNB reagent based assay; format: functional, organism-based; conditions: time 30-240 min
[22] = Cmax in Sprague-Dawley rat plasma at 10 mg/kg, po; format: ADME, organism-based; design: route oral, dose 10 mg/kg
Butyrylcholinesterase = Butyrylcholinesterase (Rattus norvegicus, UniProt Q9JKC1); assay: Inhibition of rat serum BuChE using S-butyrylthiocholine iodide as substrate incubated for 8 mins by Ellman's method; format: cell-free
[23] = Terminal half life in human plasma at 8 mg, po; format: ADME, cell-free; conditions: read-out: beta t1/2 (converted)
Cytochrome P450 2D6 = Cytochrome P450 2D6 (Homo sapiens, UniProt P10635); assay: Inhibition of CYP2D6 in human hepatocytes; format: ADME, cell-based, Hepatocyte
[24] = Half life in Sprague-Dawley rat brain at 10 mg/kg, po; format: ADME, organism-based
[25] = Oral bioavailability in Sprague-Dawley rat at 0.5 mg/kg; format: ADME, organism-based; conditions: in vivo
[26] = Tmax in human plasma at 2 mg, po; format: ADME, cell-free
[27] = Genotoxicity in Salmonella typhimurium TA1535 by Ames test; format: toxicity; conditions: salmonella enterica subsp. enterica serovar typhimurium
[28] = AUC(0 to infinity) in Sprague-Dawley rat brain at 10 mg/kg, po; format: ADME, organism-based; design: route oral, time infinity, dose 10 mg/kg
[29] = Selectivity ratio of IC50 for human ERG to IC50 for rat cortex homogenate acetylcholinesterase
[30] = Genotoxicity in Salmonella typhimurium TA98 by Ames test; format: toxicity; conditions: salmonella enterica subsp. enterica serovar typhimurium
[31] = AUC (0 to infinity) in Beagle dog at 0.25 mg/kg, iv; format: ADME, organism-based, Canis lupus familiaris; design: route intravenous, time infinity, dose 0.25 mg/kg; conditions: in vivo
[32] = Half life in Sprague-Dawley rat plasma at 10 mg/kg, po; format: ADME, organism-based

Sequence of Butyrylcholinesterase (Q9JKC1 whole entry): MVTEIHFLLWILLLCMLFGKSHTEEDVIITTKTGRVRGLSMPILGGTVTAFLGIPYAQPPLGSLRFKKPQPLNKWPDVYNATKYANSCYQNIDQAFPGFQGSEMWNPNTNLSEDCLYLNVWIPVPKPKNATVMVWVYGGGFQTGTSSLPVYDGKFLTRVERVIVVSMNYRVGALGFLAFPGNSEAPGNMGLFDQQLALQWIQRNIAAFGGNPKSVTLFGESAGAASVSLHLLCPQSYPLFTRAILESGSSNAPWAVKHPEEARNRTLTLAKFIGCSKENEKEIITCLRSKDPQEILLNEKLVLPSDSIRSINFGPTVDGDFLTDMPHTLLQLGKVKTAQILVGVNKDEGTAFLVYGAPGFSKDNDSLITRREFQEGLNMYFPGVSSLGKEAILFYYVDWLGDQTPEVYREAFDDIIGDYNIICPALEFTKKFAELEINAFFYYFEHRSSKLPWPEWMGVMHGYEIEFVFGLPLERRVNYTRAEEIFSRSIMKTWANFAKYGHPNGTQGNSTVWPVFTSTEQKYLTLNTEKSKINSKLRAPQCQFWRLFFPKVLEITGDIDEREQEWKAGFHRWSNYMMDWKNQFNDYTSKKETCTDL
Sequence of Cytochrome P450 2D6 (P10635 whole entry): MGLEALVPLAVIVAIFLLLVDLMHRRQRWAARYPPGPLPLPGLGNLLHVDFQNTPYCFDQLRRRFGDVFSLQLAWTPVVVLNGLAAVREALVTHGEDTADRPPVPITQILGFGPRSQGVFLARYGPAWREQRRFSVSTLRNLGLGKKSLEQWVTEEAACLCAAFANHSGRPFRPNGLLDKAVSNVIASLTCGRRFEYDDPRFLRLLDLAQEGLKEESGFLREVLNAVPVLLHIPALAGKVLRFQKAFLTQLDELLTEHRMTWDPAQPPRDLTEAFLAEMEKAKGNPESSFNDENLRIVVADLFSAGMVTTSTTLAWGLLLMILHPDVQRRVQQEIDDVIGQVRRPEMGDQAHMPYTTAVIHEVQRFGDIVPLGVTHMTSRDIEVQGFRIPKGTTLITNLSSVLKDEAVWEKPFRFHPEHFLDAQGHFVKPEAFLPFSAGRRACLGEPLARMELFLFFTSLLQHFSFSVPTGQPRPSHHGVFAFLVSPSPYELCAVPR

With `COc1cc2c(cc1OC)C(=O)C(CC1(F)CCN(Cc3ccccc3F)CC1)C2` (stereo unspecified) the IC50 (Cytochrome P450 2C8) was > 30 µM, the bioavailability [1] was 61.3% and the MRT [2] was 8.9 h. The Activity (Mus musculus) was “Active”, the AUC(0-t) [3] was 1080 ng·h/mL and the half-life [4] was 30.8 h. The Activity [5] was “Non-Toxic”, the Vd [6] was 23.2 L/kg and the half-life [7] was 20.7 h. It also gave an MRT inf [8] of 5.21 h, a Kp [9] of 5.4 and a Tmax [10] of 0.92 h. For the same molecule, the Cmax [11] was 2.43 ng/mL, the Activity [12] was “Non-Toxic” and the clearance [13] was 17.5 mL/min/kg. For the same molecule, the Cmax [14] was 1.19 ng/mL, the Tmax [15] was 0.63 h and the Activity [16] was “Non-Toxic”. For the same molecule, the Tmax [17] was 0.5 h, the efflux ratio [18] was 0.67 and the inhibition [19] was “Active”. The Activity [20] was “Non-Toxic”, the inhibition [21] was “Active” and the Cmax [22] was 215 ng/mL. The IC50 (Butyrylcholinesterase) was 31.7 µM, the half-life [23] was 27.6 h and the IC50 (Cytochrome P450 2D6) was > 30 µM. It also gave a half-life [24] of 6.99 h, a bioavailability [25] of 45.3% and a Tmax [26] of 1.5 h. For the same molecule, the Activity [27] was “Non-Toxic”, the AUC(0-inf) [28] was 6430 ng·h/mL and the Ratio IC50 [29] was 10700. For the same molecule, the Activity [30] was “Non-Toxic”, the AUC(0-inf) [31] was 256 ng·h/mL and the half-life [32] was 5.57 h.

Source: ChEMBL document CHEMBL4813953, “Kinetics-Driven Drug Design Strategy for Next-Generation Acetylcholinesterase Inhibitors to Clinical Candidate” (J Med Chem, 2021)
